SMILES strings stand for the structures. Where two headings read alike, the source gives them in different places.

Assay [1] deals with T1, human M5 receptor (Homo sapiens, UniProt P08912).
T1 construct: expressed in transfected cells
T1 sequence (P08912 1-532): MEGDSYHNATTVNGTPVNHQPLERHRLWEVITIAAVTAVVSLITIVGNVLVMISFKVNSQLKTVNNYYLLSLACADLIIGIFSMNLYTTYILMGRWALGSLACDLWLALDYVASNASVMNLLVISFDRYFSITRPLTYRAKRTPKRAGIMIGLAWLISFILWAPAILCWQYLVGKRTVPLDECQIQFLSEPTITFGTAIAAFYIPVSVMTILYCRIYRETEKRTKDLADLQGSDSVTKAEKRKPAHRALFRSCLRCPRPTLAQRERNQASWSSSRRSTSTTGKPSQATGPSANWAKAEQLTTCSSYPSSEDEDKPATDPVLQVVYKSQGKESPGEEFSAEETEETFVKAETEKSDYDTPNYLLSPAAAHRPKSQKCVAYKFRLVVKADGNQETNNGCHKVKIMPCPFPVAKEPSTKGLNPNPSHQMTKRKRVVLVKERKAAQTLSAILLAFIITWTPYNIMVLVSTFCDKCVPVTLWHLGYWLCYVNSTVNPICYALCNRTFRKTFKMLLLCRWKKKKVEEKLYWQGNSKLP
Nature of the assay: HTRF IP-One curve shift assay, M5. It is filed as cell-based. Conditions: M5. How it is done: HTRF IP-One assays were performed using frozen cell aliquots prepared from CHO-K1 cell lines stably expressing human M1, M3, or M5 receptors. Cells were frozen following typical cell freezing protocols. […] Dissociated cells were quenched in full media and collected by centrifugation at 290×g for 5 min. […] 1 mL aliquots of cells were dispensed into cryovial tubes and frozen in a controlled rate cryo-freezer container at −80° C. Cells were stored at −80° C. (or in liquid nitrogen if stored for at least six months) until the day of the assay.
On the day before the assay, frozen cells were rapidly thawed in a 37° C. water bath, brought up in 20 mL of full media, and collected via centrifugation at 290×g for 5 min. […] Next, […] of cells (10,000 cells/well) were dispensed into 384-well coming plates in triplicate. Cells were incubated overnight in a 37° C., 5% CO2 cell incubator.
Then, 2 μL of test compounds were added to the cells and incubated for 10 min at 37° C. in a 5% CO2 cell incubator. Next, 2 μL of diluted agonists serially diluted in assay buffer at 7× final assay concentration was added to assay plates. Finally, assay plates were incubated for two hours at 37° C. in a 5% CO2 cell incubator.
Six μL of IP-1 detection reagents (IP-One Gq HTRF kit, Cisbio Cat #62IPAPEJ) were dispensed to the cells. First, the plates were incubated for two hours at room temperature (IP-One detection reagents were made according to Cisbio protocol). Then, plates were read on an Envision plate reader following the Cisbio guidelines.
(§1) Raw data for all assays was transmitted directly from plate readers into the Beacon database for processing. All assay plates contained positive and negative control wells for data normalization and scaling. […] All control wells contained DMSO at a final assay concentration that matched the test compound wells.
Counts from the standard curve wells were used to generate a sigmoidal standard curve, which was used to transform the raw counts from each well on the plate (scaling control wells and compound wells) into a pmol/well IP1 value.
(In general: TR-FRET usually uses a lanthanide donor and a delayed reading to cut background.)

In assay [2] the target is T2, human M4 receptor (Homo sapiens, UniProt P08173).
T2 construct: expressed in transfected cells
T2 sequence (P08173 1-479): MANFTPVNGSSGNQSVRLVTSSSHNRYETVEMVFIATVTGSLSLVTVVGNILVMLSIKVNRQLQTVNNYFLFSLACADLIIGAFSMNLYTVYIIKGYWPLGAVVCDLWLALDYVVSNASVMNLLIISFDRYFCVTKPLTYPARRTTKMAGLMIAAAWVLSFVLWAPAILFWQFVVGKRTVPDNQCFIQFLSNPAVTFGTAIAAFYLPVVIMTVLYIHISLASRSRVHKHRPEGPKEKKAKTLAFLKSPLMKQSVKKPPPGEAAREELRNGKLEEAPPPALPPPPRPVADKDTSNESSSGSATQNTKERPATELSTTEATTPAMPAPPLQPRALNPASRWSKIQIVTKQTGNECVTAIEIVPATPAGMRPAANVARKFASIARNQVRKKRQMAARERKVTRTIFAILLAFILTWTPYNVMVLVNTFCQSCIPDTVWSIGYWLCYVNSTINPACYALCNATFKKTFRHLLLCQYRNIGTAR
Briefly: SPA GTP (GTPgS) binding curve shift assay, M4. It counts as biochemical. The method, then: Membranes were prepared for GTPgS binding assays from CHO-K1 cells stably expressing human M2 or human M4 receptors. Cells were grown in 5-layer cell culture flasks. Cells were washed with 50 mL of PBS and then dissociated with 0.05% trypsin. Dissociated cells were then collected by centrifugation at 650×g for 8 min at 4° C. Pellets were rewashed in PBS by centrifugation and resuspended in 30 mL of 20 mM HEPES, 10 mM EDTA, pH 7.4. After sitting on ice for 30 min, membranes were collected by centrifugation at 50000×g for 15 min at 4° C., resuspended in 30 mL of 20 mM HEPES, 0.1 mM EDTA, pH 7.4, and collected again by centrifugation. Pellets were then washed twice by centrifugation in 30 mL of 20 mM HEPES, pH 7.4, and stored at −80° C. until the day of the assay. On the day of the assay, pellets were thawed on ice and resuspended in 1 mL of 20 mM HEPES, pH 7.4, 10 mM MgCl2, and 100 mM NaCl using Dounce homogenization.
According to Promega guidelines, membrane protein concentration was determined by BCA protein assay (Promega, Madison, WI).
On the day of the assay, serial dilutions of test PAM compounds were brought up in assay buffer (20 mM HEPES, 10 mM MgCl2; see Table 4 for NaCl concentrations) at four times the final assay concentration. […] of membrane homogenates (containing […] of membrane protein) were prepared in assay buffer supplemented with GDP at 4× final assay concentration (see Table 4 for GDP concentrations) and dispensed into 96 well polypropylene, U-bottom Greiner plates. Membrane plates were incubated for 10 min at room temperature with gentle shaking. Then, 25 μL of test compounds were added to assay plates. Plates were then incubated, with shaking, for an additional 10-15 min. Then, 25 μL of diluted agonists serially diluted in assay buffer at 4× final assay concentration was added to assay plates. Plates were then incubated, with shaking, for an additional 10-15 min. Next, […] of 0.4 nM ^35S-GTP (Perkin Elmer, Waltham, MA) in assay buffer was added to assay mixtures. The binding reaction was left on the shaker for 1 h at room temperature. Membranes in assay reactions were then transferred to GF/C filter plates (UniFilter, Perkin Elmer) and washed three times using FilterMate Harvester (Perkin Elmer) with cold assay buffer containing no GDP. Filter plates were then dried at 40° C. overnight, and […] of Beta Plate Scintillation liquid was added. Plates were top and bottom sealed before being read on the TopCount scintillation counter (Perkin Elmer, Waltham, MA).
as §1
For GTPgS assays, the negative control wells were defined as 0% response. The highest response in a plate was scaled to 1, representing 100% response. Data from test compound wells was scaled to these controls and are reported as % control values. This was done to allow for subsequent GraphPad cooperativity analysis, setting the maximal response at no more than 1.

Regarding `CC(=O)OCC[N+](C)(C)C` [acetylcholine, reference compound], the Emax in assay [1] (Emraclidine concentration 41.2 nM, read-out: Emax) was found to be 77.7%; in assay [1] (MK-4710 concentration 0 nM), 71.2%; in assay [1] (MK-4710 concentration 1110 nM, read-out: Emax), 78.1%; in assay [1] (MK-4710 concentration 3330 nM, read-out: Emax), 78.8%; in assay [2] (MK-4710 concentration 0 nM) it was 67.6%. Moreover, the maximum response (Emax) at […] in assay [1] (Emraclidine concentration […], read-out: Emax) was 72.3%; in assay [1] (MK-4710 concentration […], read-out: Emax), 77.7%; in assay [2] (MK-4710 concentration […]), 76.8%.

The term Emax denotes the maximal effect, on the per cent scale that the assay sets.
